{"source": "patent US20200231562A1", "about": "“NOVEL MACROLIDE ANTIBIOTICS” (HELMHOLTZ-ZENTRUM FÜR INFEKTIONSFORSCHUNG GMBH, priority 2014, published 2020)", "assay_in_all_cases": "MIC by microbroth dilution", "format_in_all_cases": "cell-based", "key": {"[1]": {"tested_on": "Staphylococcus aureus N315 (MRSA)", "details": "16 h, 30° C., n.i. = no inhibition up to 67 μg/ml", "method_in_brief": "(§1)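 Read-out: A600 after 16 h at 30° C. with shaking; MIC from sigmoidal fit. Cells from overnight EBS cultures set to OD600 0.01, compound (in DMSO) serially diluted, duplicates.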"}, "[2]": {"tested_on": "Staphylococcus aureus Mu50 (MRSA/VRSA) ATCC 700699", "details": "16 h, 30° C., n.i. = no inhibition up to 67 μg/ml", "method_in_brief": "as §1"}, "[3]": {"tested_on": "Mycobacterium sp. DSM 43270", "details": "16 h, 30° C., n.i. = no inhibition up to 67 μg/ml", "method_in_brief": "as §1"}, "[4]": {"tested_on": "Mycobacterium diemhoferi DSM 43524", "details": "Mycobacterium, DSM43524, 16 h, 30° C., n.i. = no inhibition up to 67 μg/ml, read-out: MIC", "method_in_brief": "as §1"}}, "note": "Read-outs that look alike come from different tables or passages of the source.", "data": [{"compound": "C/C=C(/C)[C@H]1C/C=C(\\C)[C@@H](O[C@H]2O[C@H](CO)[C@@H](O)[C@@H]2O)[C@H](OC(=O)CC(C)C)C(=O)C/C=C(/C)C(=O)O1", "note": "[Compound 1, disciformycin A]", "values": [{"measurement": "MIC", "setting": "[1]", "value": 8.0, "unit": "µg/mL"}, {"measurement": "MIC", "setting": "[1]; Staphylococcus aureus, MRSA, read-out: MIC", "value": 8, "unit": "µg/mL"}, {"measurement": "MIC", "setting": "[2]", "value": 2.0, "unit": "µg/mL"}, {"measurement": "MIC", "setting": "[2]; Staphylococcus aureus, read-out: MIC", "value": 2, "unit": "µg/mL"}, {"measurement": "MIC", "setting": "[3]", "value": "n.i."}, {"measurement": "MIC", "setting": "[4]", "value": 33.3, "unit": "µg/mL"}]}]}
